These are literature values, as cited in paper PMC3705364, “Biochemical and Electrophysiological Characterization of Two Sea Anemone Type 1 Potassium Toxins from a Geographically Distant Population of Bunodosoma caissarum” (Marine Drugs, 2013).

For this data set, the system named is KV1.2. The note with it: expressed in Xenopus oocytes; cited from earlier work. The method, then: The pharmacological profile of BcsTx-1 and -2 were determined on a wide range of twelve KV channels (rKV1.1, rKV1.2, hKV1.3, rKV1.4, rKV1.5, rKV1.6, rKV2.1, rKV3.1, rKV4.2, rKV4.3, hERG and the insect channel Shaker IR; r: rat and h: human). Channels were expressed in X. laevis oocytes, and their currents were recorded by using two-electrode voltage-clamp technique. BcsTx1 (0.5 µM) inh ... || In order to characterize the potency and selectivity profile, concentration-response curves were constructed for BcsTx1. […] A concentration-response curve was also constructed to determine the concentration at which BcsTx2 blocked half of the channels.

Consider “AsKs: type 1 toxin from Anemonia viridis / Anemonia sulcata (Swiss-Prot Q9TWG1) (ACKDNFAAATCKHVKENKNCGSQKYATNCAKTCGKC; UniProt Q9TWG1 1-36, looked up)”, for which the “block of KV1.2 current (in words)” value is “blocker of KV1.2 current”.
